Measurements: publication PMC9695356, “Development and Validation of an LC-MS/MS Method for Simultaneous Determination of Short Peptide-Based Drugs in Human Blood Plasma” (Molecules, 2022)

Experiments:
clinical = conditions: male, human, in vivo, sc
Method: (§1) A 1000 μL volume of blank plasma was placed in a 2 mL Eppendorf tube. Then, 10 μL of internal standard solution (50 μg/mL) was added to the tube, and the mixture was vortexed. An amount of 100 μL of the resulting sample was then transferred to another centrifuge tube, and 200 μL of methanol/deionized water/formic acid (60:40:0.08) mixture was added, followed by 500 μL of methanol. The sample was then centrifuged at 14,500 rpm for 15 min.
(§2) For the solid-phase extraction (SPE), the SPE cartridge was pre-treated with 1 mL methanol, followed by 1 mL of deionized water. The sample mixture was diluted with 500 μL of deionized water and gently loaded onto an SPE Oasis® HLB 1cc 30 mg cartridge (Waters Corporation, Milford, MA, USA). The SPE cartridge was washed with 1 mL deionized water, followed by 1 mL of methanol/deionized water (60:40) mixture. The sample was then eluted with 1 mL 0.1% formic acid (methanol solution) and evaporated to dryness (for 20 min) at 45 °C under a stream of nitrogen. The dry residue was then reconstituted with 100 μL of methanol/deionized water/formic acid (60:40:0.08) mixture.
(§3) The chromatographic separation was performed on a Jupiter® C18 column (5 μm, 50 × 4.6 mm 300 Å) (Phenomonex, Torrance, CA, USA). The mobile phase consisted of 0.1% v/v formic acid aqueous solution (solvent A) and 0.1% v/v formic acid in acetonitrile (solvent B). The mobile phase composition was changed gradually in a gradient elution (Table 5) with a constant flow rate of 1.2 mL/min. The temperature of the column oven was kept at 30 °C. After the sample preparation procedure, 30 μL of supernatant was injected into the LC-MS/MS system.
(§4) Detection was performed with triple quadruple tandem mass spectrometry in the positive ion mode (5 kW) using the MRM mode. Nitrogen was used as a nebulizer (3 L/h) and drying (20 L/h) gas. The desolvation temperature was set at 200 °C, and the source temperature was 400 °C.

[1] = LC-MS/MS quantitation of GnRH analogs in blood plasma of prostate cancer patients (therapeutic monitoring); conditions: patients on goserelin therapy; conclusion from the obtained data
Method: as §1, §2, §3, §4

[2] = native hormone; cited from earlier work
From the text: Gonadotropin-releasing hormone (GnRH) is a decapeptide released by hypothalamic neurons, which stimulates GnRH-mediated pituitary secretion of both luteinizing hormone (LH) and follicle-stimulating hormone (FSH). […] Goserelin, buserelin, and triptorelin are GnRH agonists, a relatively new class of drugs. The long-term administration of these agonists results in a significant decrease in estrogen and testosterone blood levels. ...

Row | Compound | level at 8 day of a 28-day dosing cycle (clinical; 3.6 mg) [ng/mL] | level at 16 day of a 28-day dosing cycle (clinical; 3.6 mg) [ng/mL] | level at 10 day of an 84-day dosing cycle (clinical; 10.8 mg) [ng/mL] | level at 29 day of an 84-day dosing cycle (clinical; 10.8 mg) [ng/mL] | level at 59 day of an 84-day dosing cycle (clinical; 10.8 mg) [ng/mL] | Time at which plasma concentration starts to increase [1] | Half-life [2]
1 | CC(C)C[C@H](NC(=O)[C@@H](COC(C)(C)C)NC(=O)[C@H](Cc1ccc(O)cc1)NC(=O)[C@H](CO)NC(=O)[C@H](Cc1c[nH]c2ccccc12)NC(=O)[C@H](Cc1cnc[nH]1)NC(=O)[C@@H]1CCC(=O)N1)C(=O)N[C@@H](CCCNC(=N)N)C(=O)N1CCC[C@H]1C(=O)NNC(N)=O [Goserelin, Goserelin acetate] | 0.95 | 16.2 | 7.81 | 13.6 | 0.55 | second week | –
2 | Gonadotropin-releasing hormone [GnRH] | – | – | – | – | – | – | several minutes
